Measured values taken from US11400168B2, “Methods and systems for noninvasive control of brain cells and related vectors and compositions” (CALIFORNIA INSTITUTE OF TECHNOLOGY, priority 2017, dated 2022).

Legend:
hM3Dq [1] = target: T1, hM3Dq (Homo sapiens, UniProt P20309, A239G/Y149C); assay: Intersectional ATAC: c-Fos activation of TH-positive neurons in SNc/VTA of TH-CRE mice; assay type: in vivo, TH-CRE transgenic mice; design: expressed in transfected cells; host or cells: TH-positive neurons of SNc/VTA in TH-CRE transgenic mice, transduced in vivo with AAV9; settings: CNO 1 mg/kg IP, 2 h; 9 weeks expression; n=5 mice
T1 sequence (P20309 whole entry Y149C/A239G): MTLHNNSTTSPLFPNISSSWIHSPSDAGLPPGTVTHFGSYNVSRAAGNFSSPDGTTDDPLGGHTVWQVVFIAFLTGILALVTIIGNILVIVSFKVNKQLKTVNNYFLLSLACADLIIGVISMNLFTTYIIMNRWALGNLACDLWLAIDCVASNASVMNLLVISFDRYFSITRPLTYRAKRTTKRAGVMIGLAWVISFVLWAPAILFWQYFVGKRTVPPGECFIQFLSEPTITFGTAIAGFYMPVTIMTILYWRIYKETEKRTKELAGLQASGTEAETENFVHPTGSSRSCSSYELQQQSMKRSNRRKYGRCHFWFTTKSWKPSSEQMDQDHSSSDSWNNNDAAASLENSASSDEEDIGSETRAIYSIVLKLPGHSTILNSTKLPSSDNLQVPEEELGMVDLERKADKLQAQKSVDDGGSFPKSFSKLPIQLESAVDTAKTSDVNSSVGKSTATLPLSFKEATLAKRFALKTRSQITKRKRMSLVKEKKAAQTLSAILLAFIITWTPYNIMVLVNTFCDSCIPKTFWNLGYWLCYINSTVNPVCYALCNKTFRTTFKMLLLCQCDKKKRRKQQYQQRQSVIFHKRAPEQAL
Description: After FUS-BBBO, the mice were imaged again using the same FLASH sequence to confirm opening of the BBB and appropriate targeting. Immediately afterwards, mice were placed in the home cage for recovery. The TH-CRE animals, aged 18 weeks, were subjected to FUS-BBBO using the same protocol, and using the same dose of AAV9, as for C57BL6J mice. All TH-CRE animals were females.
(§1) For activation of hippocampus, the histological evaluation was performed by an observer blinded to the identity (hM3Dq positive, or negative) of granular layer nuclei in dCA3. The expression status of the neurons was determined after the scoring of c-Fos positivity. The activation of TH neurons was evaluated by an observer blinded to the presence of FUS-BBBO targeting at a given site. TH-CRE mice expressed hM3Dq for 9 weeks after FUS-BBBO, and then were given 1 mg/kg CNO. After 2 h, they were anesthetized with ketamine/xylazine (80/10 mg/kg in PBS) and perfused using cold heparine/PBS (10 u) and then 10% NBF. […] A three-dimensional reference atlas[82] was used to choose the appropriate regions and brain sections for each mouse and contralateral and ipsilateral controls to ascertain consistency in choice of analyzed sections. […]

hM3Dq [2] = target: T1, hM3Dq; assay: c-Fos activation in dorsal CA3 of hippocampus after CNO in mice expressing hM3Dq-mCherry (ATAC); assay type: in vivo; design: host or cells: mouse (C57BL6J) hippocampal excitatory neurons transduced in vivo with AAV9; settings: CNO 1 mg/kg IP, 2.5 h, 22 weeks after FUS-BBBO, n=6
Description: C57BL6J male mice of 13 weeks of age underwent FUS-BBBO to administer AAV9 carrying hM3Dq-mCherry into the hippocampus. Subsequently, mice were housed singly to reduce background C-fos expression. After 22 weeks of expression, mice received an IP injection of 1 mg/kg CNO in sterile saline, and were returned to home cages. After 150 minutes, mice were anesthetized using Ketamine/Xylazine solution (80 mg/kg and 10 mg/kg, respectively, in PBS) and perfused with a cold PBS/Heparin (10 U/ml), and immediately afterwards with 10% Neutral Buffered Formalin (NBF). Their brains were extracted and post-fixed in 10% NBF for at least 24 hours. Brain sections (50 μm) were obtained using a VF-300 compresstome (Precisionary Instruments). […]
as §1, with “site.” for “site. TH-CRE mice expressed hM3Dq for 9 weeks after FUS-BBBO, and then were given 1 mg/kg CNO. After 2 h, they were anesthetized with ketamine/xylazine (80/10 mg/kg in PBS) and perfused using cold heparine/PBS (10 u) and then 10% NBF.”

[3] = Cued conditioning acquisition (freezing during third tone of training); assay type: in vivo; settings: ATAC, wild-type and AAV without FUS-BBBO mice
Description: (§2) Behavioral studies for fear conditioning were performed in sound-attenuated fear conditioning chambers (30×25×25 cm, Med Associates). Animals were trained and tested for context fear in Context A, which comprised a staggered wire grid floor, white light, 5% acetic acid for scent and no background noise. Locomotor testing was performed in Context B, which was differentiated from Context A by chamber shape, floor, illumination, odor, background noise and room location. Animal activity was recorded and quantified using Video Freeze software (Med Associates). For cued training, the tone was 80 dB and 30s.
Mice were injected with CNO (10 mg/kg, IP) or saline (IP), and after 40-60 minutes underwent context and cued fear conditioning in Context A. This timeframe was chosen to allow CNO to reach its pharmacokinetic peak[88]. A 3-minute initial baseline period was followed by 3×30-s presentations of a tone co-terminated with a 2-s foot shock (0.7 mA), with inter-trial interval of 60 s. After the trials, the mice remained in the context for an additional 60 s, after which they were transported back into the vivarium. After 24 h, mice were placed in Context A to record context fear for the duration of training (8 min. and 40 s). […]

hM4Di = target: T2, hM4Di (Homo sapiens, UniProt P08173, A203G/Y113C); assay: Context fear conditioning and recall (freezing in Context A) with hM4Di targeted to ventral and dorsal hippocampus; assay type: in vivo, mice
T2 construct: host or cells: mouse (C57BL6J) hippocampal excitatory neurons transduced in vivo with AAV9
T2 sequence (P08173 1-479 Y113C/A203G): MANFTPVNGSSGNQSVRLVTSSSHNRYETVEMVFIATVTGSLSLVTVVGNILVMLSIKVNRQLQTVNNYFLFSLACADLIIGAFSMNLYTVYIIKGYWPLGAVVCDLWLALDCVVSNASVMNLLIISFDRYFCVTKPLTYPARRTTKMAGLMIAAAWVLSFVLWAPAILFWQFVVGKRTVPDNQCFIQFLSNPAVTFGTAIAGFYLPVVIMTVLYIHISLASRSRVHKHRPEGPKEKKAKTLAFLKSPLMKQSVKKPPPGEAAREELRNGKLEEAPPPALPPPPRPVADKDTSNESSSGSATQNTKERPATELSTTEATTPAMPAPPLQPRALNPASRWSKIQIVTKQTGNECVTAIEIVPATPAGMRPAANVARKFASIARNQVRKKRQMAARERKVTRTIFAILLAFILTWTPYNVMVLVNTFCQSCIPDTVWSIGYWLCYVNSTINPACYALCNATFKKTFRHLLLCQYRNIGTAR
Description: as §2
Mice were injected with CNO (10 mg/kg, IP) or saline (IP), and after 40-60 minutes underwent context and cued fear conditioning in Context A. This timeframe was chosen to allow CNO to reach its pharmacokinetic peak[88]. A 3-minute initial baseline period was followed by 3×30-s presentations of a tone co-terminated with a 2-s foot shock (0.7 mA), with inter-trial interval of 60 s. After the trials, the mice remained in the context for an additional 60 s, after which they were transported back into the vivarium. After 24 h, mice were placed in Context A to record context fear for the duration of training (8 min. and 40 s).
Mice were recorded using automated near-infrared video tracking in the fear conditioning chamber using VideoFreeze software. Mouse motion was measured using the activity score, from a video recording at 30 frames/s, with the motion threshold set at 18 activity units (standard value set in software). Freezing was defined as an activity score below 18 units for at least 1 s. Average freezing in the context test was scored over the whole trial. Due to automated data acquisition and evaluation, no blinding was necessary.
mice were excluded from statistical analysis if their histologically determined DREADD expression was below 30% of cell bodies in dorsal CA3 region of the hippocampus. This threshold was chosen based on previous studies showing that behavioral effects generally require modulation of at least 30% of the neurons in a targeted region[89, 90] and dorsal CA3 being the most robustly transfected hippocampus region. The resulting analyzed groups had identical levels of expression (55.1% for Saline and 60.5% for CNO groups, p=0.26, heteroscedastic, two-tailed, t-test). […] Variability in gene expression may have been due to variability in intravenous injections of virus during the FUS-BBBO procedure, since we found no difference between these mice in T1 MRI signal enhancement post FUS-BBBO (FIG. 15, panel b).
To assess the ability of ATAC to inhibit targeted neurons, and to test the functionality of this technology in a behavioral paradigm, FUS-BBBO was used to target inhibitory DREADDs (hM4Di) to ventral and dorsal hippocampus (FIG. 5, panel a), and the impact of CNO administration on the formation of contextual fear memories was assessed. This well-established behavioral paradigm has been used in studies of anxiety, phobias, PTSD and fear circuitry[99]° [100]. Fear conditioning has also served as a testing ground for other novel neuromodulatory techniques. Since the hippocampus plays an essential role in memory formation, it is hypothesized that inhibiting it noninvasively using the ATAC strategy would reduce the ability of mice to form fear memories.
Two groups of control mice were either completely untreated or received intravenous virus without FUS-BBBO. After 6-8 weeks, the mice underwent a fear conditioning protocol (FIG. 5, panel a). In this protocol, the mice are placed in a unique environment (defined by chamber shape, lighting, smell and sound; Context A in FIG. 5, panel a) while receiving three electric foot shocks, causing them to associate this environment with the noxious stimulus in a process known as context fear conditioning. […]

[4] = Exploratory behavior in novel environment (Context B, open field test); assay type: in vivo; settings: all groups of mice (ATAC, AAV without FUS-BBBO, wild-type), 3 minutes
Description: as §2
Between 30 and 45 minutes after the context fear test, mice were transported to another room, placed in Context B and allowed to explore the chamber for 3 minutes while their activity was recorded. Due to automated data acquisition and evaluation, no blinding was necessary.
One day after fear conditioning, the mice were placed in a novel environment (Context B in FIG. 5, panel a), which they were allowed to explore freely for 3 minutes. The exploratory behavior of all groups of mice was likewise unaffected by CNO administration (FIG. 5, panel e-g).

C[N+]1([O-])CCN(C2=Nc3cc(Cl)ccc3Nc3ccccc32)CC1 [CNO, clozapine-N-oxide]
increase in activation (c-Fos) among TH-positive neurons, ATAC-targeted side versus contralateral (hM3Dq [1]): 7.3 fold
likelihood of c-Fos staining, hM3Dq-positive cells versus cells not expressing hM3Dq (hM3Dq [2]): 5.8 times
cued freezing at the end of the training session [3]: unaffected
time spent freezing in fear recall context (hM4Di; ATAC mice (hM4Di), CNO 10 mg/kg IP 40-60 min before conditioning, recall 24 h later, saline 53.2%): 21.8%
context fear (freezing) without excluding mice with expression below 30% (hM4Di; ATAC mice treated with CNO, all mice, saline 53.2%): 34%
reduction in fear memory versus saline (hM4Di; ATAC mice, CNO before conditioning, n=13 and 7): more than 2 fold
context fear relative to untreated controls (hM4Di; CNO treatment alone in wild-type mice): did not result in a reduction in context fear
correlation (r) of DREADD expression in dorsal CA3 with formation of context fear memories (hM4Di; mice treated with CNO, all mice, n=11): 0.62
reduction in fear memory formation (hM4Di; single injection of CNO several weeks after FUS-BBBO): 2.4 fold
context fear relative to untreated controls (hM4Di; systemic AAV9 injection without FUS-BBBO, CNO): did not result in a reduction in context fear
exploratory behavior [4]: unaffected
